According to ChEMBL document CHEMBL1201862, “PubChem BioAssay data set” (2004):
Calls of active or inactive are those of the source.

Assays:
[1] = target: T1, Tyrosine-protein phosphatase non-receptor type 22 (Homo sapiens, UniProt Q9Y2R2); assay type: functional
T1 sequence (Q9Y2R2 whole entry): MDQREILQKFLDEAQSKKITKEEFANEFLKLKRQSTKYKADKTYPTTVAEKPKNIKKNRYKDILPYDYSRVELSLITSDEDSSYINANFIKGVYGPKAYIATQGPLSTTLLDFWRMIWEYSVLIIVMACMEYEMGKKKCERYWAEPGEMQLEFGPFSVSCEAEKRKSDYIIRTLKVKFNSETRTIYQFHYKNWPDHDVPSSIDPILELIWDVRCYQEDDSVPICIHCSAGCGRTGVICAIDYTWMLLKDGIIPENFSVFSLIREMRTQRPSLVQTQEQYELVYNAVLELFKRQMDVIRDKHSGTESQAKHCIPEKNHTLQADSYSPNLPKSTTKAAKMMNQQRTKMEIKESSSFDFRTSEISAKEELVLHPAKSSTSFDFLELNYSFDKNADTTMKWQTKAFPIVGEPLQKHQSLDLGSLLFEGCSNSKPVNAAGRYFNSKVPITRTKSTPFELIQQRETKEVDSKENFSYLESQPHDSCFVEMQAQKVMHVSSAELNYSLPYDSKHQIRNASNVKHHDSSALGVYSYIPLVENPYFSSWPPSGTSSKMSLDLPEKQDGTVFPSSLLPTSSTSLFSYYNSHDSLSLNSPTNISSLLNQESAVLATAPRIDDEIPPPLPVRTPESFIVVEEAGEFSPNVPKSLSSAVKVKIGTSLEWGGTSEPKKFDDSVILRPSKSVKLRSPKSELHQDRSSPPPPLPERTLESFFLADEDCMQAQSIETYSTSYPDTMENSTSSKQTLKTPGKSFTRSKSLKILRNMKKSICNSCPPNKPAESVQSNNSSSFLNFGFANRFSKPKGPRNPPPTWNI

[2] = target: T2, Tyrosine-protein phosphatase non-receptor type 7 (Homo sapiens, UniProt P35236); assay type: functional
T2 sequence (P35236 whole entry): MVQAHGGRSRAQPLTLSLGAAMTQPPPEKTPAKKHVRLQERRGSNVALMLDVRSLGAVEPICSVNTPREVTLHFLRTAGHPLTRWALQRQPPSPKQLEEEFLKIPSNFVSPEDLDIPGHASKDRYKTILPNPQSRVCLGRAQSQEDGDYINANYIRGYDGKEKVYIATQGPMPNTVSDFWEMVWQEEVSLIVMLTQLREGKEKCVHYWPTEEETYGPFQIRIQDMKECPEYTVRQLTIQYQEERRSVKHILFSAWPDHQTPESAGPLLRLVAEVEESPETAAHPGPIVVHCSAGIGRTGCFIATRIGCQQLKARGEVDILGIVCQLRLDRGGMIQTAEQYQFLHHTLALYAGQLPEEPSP

[3] = target: T1, Tyrosine-protein phosphatase non-receptor type 22; assay type: functional; remark: listed apart in the source
[4] = target: T3, Bcl-2-related protein A1 (Mus musculus, UniProt Q07440); assay type: functional;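 note: confirmatory dose–response counterscreen on Bfl-1, used to check hits from a UBC13 polyubiquitin inhibitor campaign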
T3 sequence (Q07440 whole entry): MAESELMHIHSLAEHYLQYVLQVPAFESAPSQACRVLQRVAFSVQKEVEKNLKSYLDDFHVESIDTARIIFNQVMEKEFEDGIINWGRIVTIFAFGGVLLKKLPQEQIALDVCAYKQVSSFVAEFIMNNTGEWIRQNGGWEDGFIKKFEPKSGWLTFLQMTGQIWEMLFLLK

[5] = target: T4, Type-1 angiotensin II receptor (Homo sapiens, UniProt P30556); experiment: AT1 receptor agonists, dose response, selectivity assay for APJ receptor agonist project, cell-based, uHTS hits (AID 488865); assay type: functional;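 note: beta-arrestin recruitment to AT1 measured by enzyme fragment complementation luminescence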
T4 sequence (P30556 whole entry): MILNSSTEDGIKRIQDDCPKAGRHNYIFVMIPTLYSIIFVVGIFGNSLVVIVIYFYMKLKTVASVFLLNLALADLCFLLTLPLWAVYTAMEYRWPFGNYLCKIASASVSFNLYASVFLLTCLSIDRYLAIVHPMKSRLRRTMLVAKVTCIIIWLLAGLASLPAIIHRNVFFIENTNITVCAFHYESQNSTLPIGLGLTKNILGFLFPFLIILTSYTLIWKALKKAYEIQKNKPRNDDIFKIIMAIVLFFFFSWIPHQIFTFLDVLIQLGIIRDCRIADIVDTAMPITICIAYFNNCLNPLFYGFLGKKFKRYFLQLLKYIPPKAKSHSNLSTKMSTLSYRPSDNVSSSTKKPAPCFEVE

[6] = target: T5, Ubiquitin-conjugating enzyme E2 N (Homo sapiens, UniProt P61088); assay type: functional
T5 sequence (P61088 whole entry): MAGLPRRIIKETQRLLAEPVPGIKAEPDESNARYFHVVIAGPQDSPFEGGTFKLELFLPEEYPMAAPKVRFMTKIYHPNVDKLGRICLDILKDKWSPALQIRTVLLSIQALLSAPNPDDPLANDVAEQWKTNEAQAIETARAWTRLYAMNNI

[7] = target: T5, Ubiquitin-conjugating enzyme E2 N; assay type: functional; remark: listed apart in the source
[8] = target: T6, E3 ubiquitin-protein ligase XIAP (Homo sapiens, UniProt P98170); experiment: XIAP antagonists, biochemical, IAP family, fluorescence polarization (AID 1018); assay type: functional
[9] = target: T6, E3 ubiquitin-protein ligase XIAP; experiment: Counter Screen using XIAP-Bir3 for Chemical Antagonists of Bir1/2 domains of IAP-family anti-apoptotic proteins. [Related pubchem assays (depositor defined):AID1018, AID1449, AID1514, AID1638, AID1749, AID1750, AID488957, AID488963]
[10] = tested on: BJ; experiment: cytotoxicity toward Ras-transformed BJeLR fibroblasts, dose response, cell-based, alamar blue fluorescence, cherrypicked samples (AID 2631); assay type: functional; conditions: Homo sapiens;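 note: confirmatory dose-response assay in RAS-dependent BJ fibroblasts engineered with TERT, LT and ST, with cytotoxicity read by fluorescence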
[11] = target: Luciferin 4-monooxygenase (Photinus pyralis, UniProt P08659); experiment: firefly luciferase enzyme inhibitors, dose response, biochemical, luminescence (AID 1891)
[12] = control 3'UTR Renilla luciferase suppression, dose response, counter-screen for Shn3 inhibitor project, cell-based, Clone20-Shn3RL, cherry-picked (AID 624133); assay type: functional
[13] = A Cell Based Secondary Assay To Explore Cytotoxicity of Compounds that Sensitize Mycobacterium Tuberculosis to Beta-Lactam Antibiotics.; assay type: functional
[14] = inhibitors of HIV Env-driven cell fusion, dose response, cherry-pick (AID 652057); assay type: functional, cell-based
[15] = HepG2 cell cytotoxicity, dose response, cytotoxicity control for Shn3 inhibitor project, CellTiter-Glo, cherry-picked (AID 624134); assay type: functional, cell-based
[16] = cytotoxicity toward DRD oncogenic fibroblasts, dose response, cell-based, non-viral oncogenic, luminescence (AID 1934); assay type: functional; conditions: Homo sapiens
[17] = reduction of Shn3 3'UTR firefly luciferase signal, dose response, Schnurri-3 inhibitor project, cell-based, Clone20 osteoblasts, cherry-pick, set 2 (AID 720490); assay type: functional;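 note: actives lower the luminescence signal as inhibitors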
[18] = Luminescence-based counterscreen assay for KLF5 inhibitors: dose response cell-based high throughput screening assay to identify cytotoxic compounds using the IEC-6 intestinal epithelial cell line. [Related pubchem assays: 1700 (Primary screen.), 1834 (Confirmation screen.), 1858 (Summary AID.), 1905 (Counterscreen.)]; assay type: functional
[19] = CEM21 lymphoblast cell cytotoxicity, dose response, cytotoxicity control for viral fusion inhibitor project, CellTiter-Glo luminescence, cherry-picked (AID 652042); assay type: functional, cell-based;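 note: potency for signal decrease meaning cytotoxicity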
[20] = Luminescence Cell-Based Dose Confirmation HTS to Identify Inhibitors of Platelet Dense Granule Release. [Related pubchem assays: 1663 (Primary HTS), 1678 (Summary of Project)]; assay type: functional
[21] = tested on: BJ; experiment: cytotoxicity toward BJ-TERT-LT-ST fibroblasts, dose response, cell-based, RAS-independent, luminescence (AID 1935); assay type: functional; conditions: Homo sapiens;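 note: BJ fibroblasts immortalized with TERT plus LT and ST oncogenes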
[22] = off-target signal loss in HeLa-CEM21 co-culture – HeLa F-luc CTL cells, cherry-picked, counter-screen for HIV-1 Env fusion inhibitor project, dose response (AID 652040); assay type: functional, cell-based;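 note: potency for signal decrease marking cytotoxic or nonspecific inhibition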
[23] = cytotoxicity in HEK-293T NF-kB-Luc cells, dose response, cytotoxicity control for B/T-cell NF-kB inhibitor project, cell-based, uHTS hits (AID 489019); assay type: functional;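 note: IC50 reflects cytotoxicity as loss of cell viability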
[24] = Shn3 3'UTR reporter inhibitors, dose response, cell-based, Clone20 osteoblasts, firefly luciferase, cherry-picked (AID 624132); assay type: functional;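 note: firefly luciferase luminescence from reporter carrying the Shn3 3'UTR in osteoblasts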
[25] = ZM109 Env clade C HIV-1 fusion inhibitors, dose response, HeLa effector, CEM target cells, luciferase, cherry-pick (AID 652058); assay type: functional, cell-based
[26] = tested on: Jurkat; experiment: antigen receptor-induced NF-kB inhibitors, dose response, Jurkat, luciferase reporter, luminescence, B- and T-cell (AID 489004); assay type: functional, cell-based; conditions: Homo sapiens;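 note: NF-kB luciferase reporter Jurkat cells stimulated with PMA plus ionomycin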
[27] = tested on: BJ; experiment: cells; assay type: functional, cell-based; conditions: Homo sapiens
[28] = inhibitors of clade B AD8 Env fusion, dose response, cell-based, cherry-pick (AID 652062); assay type: functional;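 note: luciferase signal from cell-cell fusion driven by HIV-1 clade B AD8 Env; potency is for inhibitors of fusion seen as a drop in luminescence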
[29] = target: T7, Endoribonuclease toxin MazF (Escherichia coli K-12, UniProt P0AE70); experiment: MazF toxin RNase activators, dose response, biochemical, fluorescence, single-stranded RNA substrate, uHTS hits (AID 588481); assay type: functional
T7 sequence (P0AE70 whole entry): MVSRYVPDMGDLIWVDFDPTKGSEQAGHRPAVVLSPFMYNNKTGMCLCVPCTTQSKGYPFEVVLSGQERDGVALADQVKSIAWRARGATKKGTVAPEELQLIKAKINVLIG

[30] = target: Lysine-specific demethylase 4C (Homo sapiens, UniProt Q9H3R0); experiment: GASC-1 (JMJD2C) histone demethylase inhibitors, dose response, biochemical, DELFIA europium, cherry-picked samples (AID 488835); assay type: functional
[31] = target: T7, Endoribonuclease toxin MazF; experiment: fluorescent RNA oligo signal without MazF, dose response, counter-screen for MazEF activator project, biochemical, fluorescence, single-stranded RNase substrate (AID 588502); assay type: functional

T6 sequence (P98170 whole entry): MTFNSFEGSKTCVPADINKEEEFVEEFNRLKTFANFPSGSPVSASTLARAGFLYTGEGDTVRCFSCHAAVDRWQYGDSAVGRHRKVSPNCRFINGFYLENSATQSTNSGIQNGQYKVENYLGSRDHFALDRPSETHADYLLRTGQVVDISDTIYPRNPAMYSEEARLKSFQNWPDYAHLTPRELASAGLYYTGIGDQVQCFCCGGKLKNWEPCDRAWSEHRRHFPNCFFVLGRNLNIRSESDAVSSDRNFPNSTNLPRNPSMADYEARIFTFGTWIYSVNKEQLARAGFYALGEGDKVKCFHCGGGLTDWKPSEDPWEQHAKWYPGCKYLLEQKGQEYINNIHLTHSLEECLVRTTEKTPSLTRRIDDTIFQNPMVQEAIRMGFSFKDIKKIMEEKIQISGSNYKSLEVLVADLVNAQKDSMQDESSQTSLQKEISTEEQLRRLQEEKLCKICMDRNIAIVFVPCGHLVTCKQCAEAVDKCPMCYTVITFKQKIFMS
Sequence of Luciferin 4-monooxygenase (P08659 whole entry): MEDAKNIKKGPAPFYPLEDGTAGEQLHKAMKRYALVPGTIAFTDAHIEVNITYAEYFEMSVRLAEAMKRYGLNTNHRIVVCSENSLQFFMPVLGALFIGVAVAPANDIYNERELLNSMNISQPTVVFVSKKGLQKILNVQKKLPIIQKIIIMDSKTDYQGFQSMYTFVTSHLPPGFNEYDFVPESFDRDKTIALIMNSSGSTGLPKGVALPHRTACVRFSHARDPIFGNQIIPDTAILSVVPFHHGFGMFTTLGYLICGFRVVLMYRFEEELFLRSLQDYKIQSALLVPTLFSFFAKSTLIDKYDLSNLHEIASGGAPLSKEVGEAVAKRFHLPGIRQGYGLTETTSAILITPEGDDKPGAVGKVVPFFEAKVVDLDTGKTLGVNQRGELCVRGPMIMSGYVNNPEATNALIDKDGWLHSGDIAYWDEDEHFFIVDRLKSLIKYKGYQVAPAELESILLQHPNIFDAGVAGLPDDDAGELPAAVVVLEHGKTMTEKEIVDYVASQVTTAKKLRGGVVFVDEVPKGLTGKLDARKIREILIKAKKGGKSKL
Sequence of Lysine-specific demethylase 4C (Q9H3R0 whole entry): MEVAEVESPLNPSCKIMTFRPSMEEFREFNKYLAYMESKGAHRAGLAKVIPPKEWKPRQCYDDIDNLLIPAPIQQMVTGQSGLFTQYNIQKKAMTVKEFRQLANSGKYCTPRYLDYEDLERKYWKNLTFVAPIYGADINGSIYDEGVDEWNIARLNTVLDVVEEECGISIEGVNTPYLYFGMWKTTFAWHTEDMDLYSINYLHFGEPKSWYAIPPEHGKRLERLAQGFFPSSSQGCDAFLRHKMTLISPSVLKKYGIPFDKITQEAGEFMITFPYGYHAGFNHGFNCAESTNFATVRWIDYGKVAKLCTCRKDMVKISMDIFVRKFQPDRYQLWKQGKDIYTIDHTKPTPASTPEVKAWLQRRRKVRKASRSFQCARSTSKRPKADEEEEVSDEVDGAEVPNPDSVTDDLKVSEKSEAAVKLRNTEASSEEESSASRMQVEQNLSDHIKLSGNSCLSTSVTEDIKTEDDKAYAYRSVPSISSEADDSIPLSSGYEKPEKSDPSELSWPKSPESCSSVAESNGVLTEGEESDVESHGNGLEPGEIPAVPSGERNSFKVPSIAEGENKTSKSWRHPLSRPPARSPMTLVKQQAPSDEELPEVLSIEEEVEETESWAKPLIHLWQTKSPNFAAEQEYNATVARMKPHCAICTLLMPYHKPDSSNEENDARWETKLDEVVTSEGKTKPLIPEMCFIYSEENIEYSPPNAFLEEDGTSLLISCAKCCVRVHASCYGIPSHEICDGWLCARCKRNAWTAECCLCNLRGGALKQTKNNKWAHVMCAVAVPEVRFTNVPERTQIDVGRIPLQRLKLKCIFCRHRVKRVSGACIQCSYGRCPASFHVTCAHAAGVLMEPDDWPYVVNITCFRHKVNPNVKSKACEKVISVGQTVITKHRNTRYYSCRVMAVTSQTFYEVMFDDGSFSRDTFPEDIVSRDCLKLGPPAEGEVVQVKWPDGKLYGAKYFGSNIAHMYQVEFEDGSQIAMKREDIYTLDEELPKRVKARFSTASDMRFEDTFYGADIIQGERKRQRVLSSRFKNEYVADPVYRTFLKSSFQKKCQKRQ

Compound: Cc1noc(NS(=O)(=O)c2ccc(NC(=O)c3nn(-c4ccccc4)ccc3=O)cc2)c1C
- IC50 [1]: > 79.4 µM (inactive)
- IC50 [2]: > 79.4 µM (inactive)
- IC50 [3]: > 79.4 µM (inactive)

Compound: CCOc1cccc2sc(N(CCCN(C)C)C(=O)c3ccc(S(=O)(=O)N(C)Cc4ccccc4)cc3)nc12
- IC50 [4]: > 20 µM (inactive)
- EC50 [5]: > 100 µM (inactive)
- IC50 [6]: 8.12 µM (active)
- IC50 [7]: 8.54 µM (active)

Compound: Cc1ccsc1/C=C(\C#N)C(=O)NCc1ccco1
- IC50 [8]: > 100 µM (not active)
- IC50 [9]: > 100 µM (inactive)

Compound: COc1ccc(C(=O)Nc2nc3ccccc3s2)c(OC)c1
- EC50 [10]: > 133 µM (inactive)
- EC50 [11]: 241 nM (active)
- AC50 [12]: 43.8 µM (active)
- CC50 [13]: 29.7 µM (active)
- AC50 [14]: 757 nM (active)
- AC50 [15]: 33.5 µM (active)
- EC50 [16]: 7.2 µM (active)
- AC50 [17]: 450 nM (active)
- IC50 [18]: 7.69 µM (active)
- AC50 [19]: 14.2 µM (active)
- EC50 [20]: 1.54 µM (active)
- EC50 [21]: 17.1 µM (active)
- AC50 [22]: < 260 nM (active)
- IC50 [23]: > 80 µM (inactive)
- AC50 [24]: 523 nM (active)
- AC50 [25]: 6.04 µM (active)
- IC50 [26]: < 160 nM (active)
- EC50 [27]: 5.76 µM (active)
- AC50 [28]: 664 nM (active)

Compound: CC1(C)OC(c2ccccc2)=C/C(=C/C=C2C(=O)NC(=S)NC2=O)O1
- EC50 [29]: 11 µM (active)
- AC50 [30]: 11.6 µM (active)
- EC50 [31]: 13.9 µM (active)
